pKi: −log10 of the molar value.

In the test the target is T1, LRRK2 (Homo sapiens, UniProt Q5S007, G2019S).
T1 construct: purchased Invitrogen PV4882
Nature of the test: In Vitro LRRK2 LabChip Assay (LRRK2 Ki). The class given is biochemical. As to conditions: Table 5 compounds (formula I).

T1 sequence (Q5S007 whole entry G2019S): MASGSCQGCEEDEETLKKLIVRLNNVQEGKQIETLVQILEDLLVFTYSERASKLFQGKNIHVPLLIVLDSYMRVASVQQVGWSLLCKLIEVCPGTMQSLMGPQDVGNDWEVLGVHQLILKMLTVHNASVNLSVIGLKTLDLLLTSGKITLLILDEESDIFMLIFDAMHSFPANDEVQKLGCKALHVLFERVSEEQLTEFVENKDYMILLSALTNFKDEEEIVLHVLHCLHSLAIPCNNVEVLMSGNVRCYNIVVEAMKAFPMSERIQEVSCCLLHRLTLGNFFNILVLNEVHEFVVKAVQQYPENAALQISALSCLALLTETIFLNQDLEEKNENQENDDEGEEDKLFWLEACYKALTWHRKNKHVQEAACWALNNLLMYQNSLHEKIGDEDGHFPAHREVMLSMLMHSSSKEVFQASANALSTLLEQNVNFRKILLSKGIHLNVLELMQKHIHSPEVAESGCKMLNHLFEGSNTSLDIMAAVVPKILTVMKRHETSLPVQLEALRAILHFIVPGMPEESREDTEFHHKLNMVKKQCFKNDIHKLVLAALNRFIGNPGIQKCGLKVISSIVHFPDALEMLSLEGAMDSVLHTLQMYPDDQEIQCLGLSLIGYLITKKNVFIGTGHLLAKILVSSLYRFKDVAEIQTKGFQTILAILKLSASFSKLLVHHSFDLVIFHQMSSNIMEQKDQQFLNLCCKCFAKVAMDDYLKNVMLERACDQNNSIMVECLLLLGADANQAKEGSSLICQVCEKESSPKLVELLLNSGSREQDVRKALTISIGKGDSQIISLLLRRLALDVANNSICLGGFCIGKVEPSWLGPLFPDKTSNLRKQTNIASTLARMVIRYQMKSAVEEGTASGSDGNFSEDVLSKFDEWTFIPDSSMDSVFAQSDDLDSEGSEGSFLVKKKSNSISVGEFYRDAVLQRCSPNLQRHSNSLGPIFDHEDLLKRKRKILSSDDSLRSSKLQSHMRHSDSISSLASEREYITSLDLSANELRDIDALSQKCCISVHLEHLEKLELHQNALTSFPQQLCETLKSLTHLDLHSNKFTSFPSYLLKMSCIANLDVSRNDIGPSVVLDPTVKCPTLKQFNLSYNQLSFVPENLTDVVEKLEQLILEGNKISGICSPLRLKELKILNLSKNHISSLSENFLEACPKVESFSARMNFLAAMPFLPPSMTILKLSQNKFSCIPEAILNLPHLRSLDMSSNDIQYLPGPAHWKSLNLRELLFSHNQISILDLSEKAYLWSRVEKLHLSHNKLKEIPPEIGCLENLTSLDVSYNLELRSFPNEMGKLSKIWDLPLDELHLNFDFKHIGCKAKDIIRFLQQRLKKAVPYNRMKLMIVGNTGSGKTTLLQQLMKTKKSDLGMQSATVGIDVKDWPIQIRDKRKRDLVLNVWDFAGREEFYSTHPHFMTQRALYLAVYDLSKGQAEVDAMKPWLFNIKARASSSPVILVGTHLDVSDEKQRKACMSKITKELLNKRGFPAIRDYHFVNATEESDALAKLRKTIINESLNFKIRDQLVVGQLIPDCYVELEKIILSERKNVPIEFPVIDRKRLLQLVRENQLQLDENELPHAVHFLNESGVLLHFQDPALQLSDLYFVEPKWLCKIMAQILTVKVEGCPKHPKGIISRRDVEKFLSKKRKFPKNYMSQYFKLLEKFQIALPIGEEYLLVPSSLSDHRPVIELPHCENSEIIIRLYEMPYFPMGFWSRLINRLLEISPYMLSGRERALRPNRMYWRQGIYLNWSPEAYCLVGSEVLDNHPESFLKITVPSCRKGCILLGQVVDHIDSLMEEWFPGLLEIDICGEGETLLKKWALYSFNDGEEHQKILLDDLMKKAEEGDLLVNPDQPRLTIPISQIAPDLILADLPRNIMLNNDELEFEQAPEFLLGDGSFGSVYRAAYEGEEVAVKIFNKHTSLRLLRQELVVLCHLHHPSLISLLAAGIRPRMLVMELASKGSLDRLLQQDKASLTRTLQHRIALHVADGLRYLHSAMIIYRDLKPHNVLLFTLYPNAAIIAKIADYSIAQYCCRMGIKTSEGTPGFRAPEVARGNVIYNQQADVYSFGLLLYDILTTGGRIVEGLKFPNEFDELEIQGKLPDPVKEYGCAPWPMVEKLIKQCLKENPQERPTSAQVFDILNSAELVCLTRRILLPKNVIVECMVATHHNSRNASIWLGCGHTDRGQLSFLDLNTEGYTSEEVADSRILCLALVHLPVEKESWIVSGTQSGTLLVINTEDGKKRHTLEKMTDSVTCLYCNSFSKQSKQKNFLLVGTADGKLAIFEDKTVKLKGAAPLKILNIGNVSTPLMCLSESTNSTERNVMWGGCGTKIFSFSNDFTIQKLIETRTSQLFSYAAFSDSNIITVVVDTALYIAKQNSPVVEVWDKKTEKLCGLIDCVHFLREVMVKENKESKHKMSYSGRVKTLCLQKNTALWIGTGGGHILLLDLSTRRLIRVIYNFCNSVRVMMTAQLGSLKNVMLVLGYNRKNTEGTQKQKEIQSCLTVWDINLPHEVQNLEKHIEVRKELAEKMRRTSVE

For `CCNc1nc(Nc2cc(C)c(C(=O)N3CCOCC3)cc2Cl)ncc1C(F)(F)F` [Compound 71, [5-Chloro-4-(4-ethylamino-5-trifluoromethyl-pyrimidin-2-ylamino)-2-methyl-phenyl]-morpholin-4-yl-methanone], the pKi (usually −log10 of the Ki, conventionally taken in molar units) is 8.97. `CCNc1nc(Nc2cc(OCF)c(C(=O)N3CCOCC3)cc2Cl)ncc1C(F)(F)F` [Compound 72, [5-Chloro-4-(4-ethylamino-5-trifluoromethyl-pyrimidin-2-ylamino)-2-fluoromethoxy-phenyl]-morpholin-4-yl-methanone] had a pKi of 8.84. The pKi values of the last two compounds are within 0.2 log units of each other. Regarding `CNc1nc(Nc2cc(C)c(C(=O)N3CCOCC3)cc2F)ncc1C(F)(F)F` [Compound 73, [5-Fluoro-2-methyl-4-(4-methylamino-5-trifluoromethyl-pyrimidin-2-ylamino)-phenyl]-morpholin-4-yl-methanone], the pKi is 8.30. To `CCNc1nc(Nc2cc(F)c(C(=O)N3CCOCC3)cc2Cl)ncc1C(F)(F)F` [Compound 74, [5-Chloro-4-(4-ethylamino-5-trifluoromethyl-pyrimidin-2-ylamino)-2-fluoro-phenyl]-morpholin-4-yl-methanone] belongs 8.33; to `COc1cc(C(=O)N2CCOCC2)c(F)cc1Nc1ncc(C(F)(F)F)c(N[C@@H]2C[C@@H]2F)n1` [Compound 75, {2-Fluoro-4-[4-((1R,2S)-2-fluoro-cyclopropylamino)-5-trifluoromethyl-pyrimidin-2-ylamino]-5-methoxy-phenyl}-morpholin-4-yl-methanone], 8.66; to `CNc1nc(Nc2cc(F)c(C(=O)N3CCOC(C)(C)C3)cc2OC)ncc1C(F)(F)F` [Compound 76, (2,2-Dimethyl-morpholin-4-yl)-[2-fluoro-5-methoxy-4-(4-methylamino-5-trifluoromethyl-pyrimidin-2-ylamino)-phenyl]-methanone], 8.16. `CNc1nc(Nc2ccc(C(=O)N3CCOCC3)cc2OC2CC2)ncc1C(F)(F)F` [Compound 77, [3-Cyclopropoxy-4-(4-methylamino-5-trifluoromethyl-pyrimidin-2-ylamino)-phenyl]-morpholin-4-yl-methanone] gave a negative-log Ki (pKi) of 8.79. To `CCNc1nc(Nc2cc(OC(F)F)c(C(=O)N3CCOCC3)cc2Cl)ncc1C(F)(F)F` [Compound 78, [5-Chloro-2-difluoromethoxy-4-(4-ethylamino-5-trifluoromethyl-pyrimidin-2-ylamino)-phenyl]-morpholin-4-yl-methanone] belongs 8.16; to `CNc1nc(Nc2cc(OC(F)F)c(C(=O)N3CCOCC3)cc2Cl)ncc1C(F)(F)F` [Compound 79, [5-Chloro-2-difluoromethoxy-4-(4-methylamino-5-trifluoromethyl-pyrimidin-2-ylamino)-phenyl]-morpholin-4-yl-methanone], 7.57. `CCNc1nc(Nc2cc(F)c(C(=O)N3CC[C@H](F)C3)cc2OC)ncc1C#N` [Compound 80, 4-Ethylamino-2-[5-fluoro-4-((S)-3-fluoro-pyrrolidine-1-carbonyl)-2-methoxy-phenylamino]-pyrimidine-5-carbonitrile] had a pKi of 7.98. In turn, `CCNc1nc(Nc2cc(OC)c(C(=O)N3CC[C@H](F)C3)cc2F)ncc1C#N` [Compound 81, 4-Ethylamino-2-[2-fluoro-4-((S)-3-fluoro-pyrrolidine-1-carbonyl)-5-methoxy-phenylamino]-pyrimidine-5-carbonitrile] had a negative-log Ki (pKi) of 7.29. Then `CNc1nc(Nc2cc(OC)c(C(=O)N3CCOCC3)c(OC)c2Cl)ncc1C(F)(F)F` [Compound 82, [3-Chloro-2,6-dimethoxy-4-(4-methylamino-5-trifluoromethyl-pyrimidin-2-ylamino)-phenyl]-morpholin-4-yl-methanone], with 8.55. Compound `CNc1nc(Nc2ccc(C(=O)N3CCOC(C)(C)C3)cc2OC)ncc1C(F)(F)F` [Compound 83, (2,2-Dimethyl-morpholin-4-yl)-[3-methoxy-4-(4-methylamino-5-trifluoromethyl-pyrimidin-2-ylamino)-phenyl]-methanone] gave a pKi of 8.76. As for `CNc1nc(Nc2cc(C)c(C(=O)N3CCOCC3)cc2OCCF)ncc1C(F)(F)F` [Compound 84, [5-(2-Fluoro-ethoxy)-2-methyl-4-(4-methylamino-5-trifluoromethyl-pyrimidin-2-ylamino)-phenyl]-morpholin-4-yl-methanone], the negative logarithm of the Ki (pKi) was 8.63. Turning to `CNc1nc(Nc2cc(OC)c(C(=O)N3CCCC3)cc2OCCF)ncc1C(F)(F)F` [Compound 85, [5-(2-Fluoro-ethoxy)-2-methoxy-4-(4-methylamino-5-trifluoromethyl-pyrimidin-2-ylamino)-phenyl]-pyrrolidin-1-yl-methanone], the pKi was 8.33. Regarding `[2H]C1([2H])OC([2H])([2H])C([2H])([2H])N(C(=O)c2cc(Cl)c(Nc3ncc(C(F)(F)F)c(NCC)n3)cc2OC)C1([2H])[2H]` [Compound 86, (5-chloro-4-(4-(ethylamino)-5-(trifluoromethyl)pyrimidin-2-ylamino)-2-methoxyphenyl)(perdeuteromorpholino)methanone], the pKi was 8.39. Compound `COc1cc(C(=O)N2CCOCC2)c(OC)cc1Nc1ncc(Cl)c(OC)n1` [Compound 87, [4-(5-Chloro-4-methoxy-pyrimidin-2-ylamino)-2,5-dimethoxy-phenyl]-morpholin-4-yl-methanone] had a pKi of 8.26. Compound `CNc1nc(Nc2cc(C)c(C(=O)N3CCOCC3)cc2OCF)ncc1C(F)(F)F` [Compound 88, [5-Fluoromethoxy-2-methyl-4-(4-methylamino-5-trifluoromethyl-pyrimidin-2-ylamino)-phenyl]-morpholin-4-yl-methanone] showed a negative logarithm of the Ki (pKi) of 9.00. As to `CCN(c1ncc(C(F)(F)F)c(NC)n1)c1cc(C)c(C(=O)N2CCOCC2)cc1OCF` [Compound 89, {4-[Ethyl-(4-methylamino-5-trifluoromethyl-pyrimidin-2-yl)-amino]-5-fluoromethoxy-2-methyl-phenyl}-morpholin-4-yl-methanone], the pKi is 5.59. In turn, `CNc1nc(Nc2cc(OC)c(C(=O)N3CCCC3)cc2OCF)ncc1C(F)(F)F` [Compound 90, [5-Fluoromethoxy-2-methoxy-4-(4-methylamino-5-trifluoromethyl-pyrimidin-2-ylamino)-phenyl]-pyrrolidin-1-yl-methanone] showed a pKi of 8.49. Compared with the last compound, the pKi is 2.90 log units higher. The compound `COc1cc(C(=O)N2CCOCC2)c(F)cc1Nc1ncc(C(F)(F)F)c(NC2CCC2)n1` [Compound 91, [4-(4-Cyclobutylamino-5-trifluoromethyl-pyrimidin-2-ylamino)-2-fluoro-5-methoxy-phenyl]-morpholin-4-yl-methanone] had a pKi of 9.51. This pKi lies 1.02 log units higher than the previous one. `CNc1nc(Nc2cc(F)c(C(=O)N3CCOCC3)cc2C)ncc1C(F)(F)F` [Compound 92, [2-Fluoro-5-methyl-4-(4-methylamino-5-trifluoromethyl-pyrimidin-2-ylamino)-phenyl]-morpholin-4-yl-methanone] had a pKi of 8.44. As to `COc1cc(C(=O)N2CCOCC2)c(C)cc1Nc1ncc(Cl)c(OC)n1` [Compound 93, [4-(5-Chloro-4-methoxy-pyrimidin-2-ylamino)-5-methoxy-2-methyl-phenyl]-morpholin-4-yl-methanone], the pKi was 8.26. `CCOc1nc(Nc2cc(C)c(C(=O)N3CCOCC3)cc2OC)ncc1Cl` [Compound 94, [4-(5-Chloro-4-ethoxy-pyrimidin-2-ylamino)-5-methoxy-2-methyl-phenyl]-morpholin-4-yl-methanone] had a negative-log Ki (pKi) of 8.53. In the case of `CNc1nc(Nc2cc(F)c(C(=O)N3CCCC3)cc2OCF)ncc1C(F)(F)F` [Compound 95, [2-Fluoro-5-fluoromethoxy-4-(4-methylamino-5-trifluoromethyl-pyrimidin-2-ylamino)-phenyl]-pyrrolidin-1-yl-methanone], the pKi was 8.16. Take `COc1cc(C(=O)N2CC[C@H](F)C2)ccc1Nc1ncc(C#N)c(NC2CC2)n1` [Compound 96, 4-Cyclopropylamino-2-[4-((S)-3-fluoro-pyrrolidine-1-carbonyl)-2-methoxy-phenylamino]-pyrimidine-5-carbonitrile]: the pKi is 8.50. To `CCNc1nc(Nc2cc(C)c(C(=O)N3CC[C@H](F)C3)cc2OC)ncc1C#N` [Compound 97, 4-Ethylamino-2-[4-((S)-3-fluoro-pyrrolidine-1-carbonyl)-2-methoxy-5-methyl-phenylamino]-pyrimidine-5-carbonitrile] belongs 8.92; to `CCNc1nc(Nc2ccc(C(=O)N3CC[C@H](F)C3)cc2F)ncc1C#N` [Compound 98, 4-Ethylamino-2-[2-fluoro-4-((S)-3-fluoro-pyrrolidine-1-carbonyl)-phenylamino]-pyrimidine-5-carbonitrile], 7.76. To `CNc1nc(Nc2cc(C)c(C(=O)N3CCOCC3)cc2OC(C)C)ncc1C(F)(F)F` [Compound 99, [5-Isopropoxy-2-methyl-4-(4-methylamino-5-trifluoromethyl-pyrimidin-2-ylamino)-phenyl]-morpholin-4-yl-methanone] belongs 8.44; to `CCOc1cc(C(=O)N2CCOCC2)c(C)cc1Nc1ncc(C(F)(F)F)c(NC)n1` [Compound 100, [5-Ethoxy-2-methyl-4-(4-methylamino-5-trifluoromethyl-pyrimidin-2-ylamino)-phenyl]-morpholin-4-yl-methanone], 8.98; to `CNc1nc(Nc2cc(C)c(C(=O)N3CCCC3)cc2OCF)ncc1C(F)(F)F` [Compound 101, [5-Fluoromethoxy-2-methyl-4-(4-methylamino-5-trifluoromethyl-pyrimidin-2-ylamino)-phenyl]-pyrrolidin-1-yl-methanone], 9.16. Take `O=C(c1cc(Cl)c(Nc2ncc(C(F)(F)F)c(NC3CC3)n2)cc1OCF)N1CCOCC1` [Compound 102, [5-Chloro-4-(4-cyclopropylamino-5-trifluoromethyl-pyrimidin-2-ylamino)-2-fluoromethoxy-phenyl]-morpholin-4-yl-methanone]: the pKi is 6.15. Compared with the last compound, the pKi is 3.01 log units lower.

In the case of `CCNc1nc(Nc2cc(C)c(C(=O)N3CCOCC3)cc2F)ncc1C(F)(F)F` [Compound 103, [4-(4-Ethylamino-5-trifluoromethyl-pyrimidin-2-ylamino)-5-fluoro-2-methyl-phenyl]-morpholin-4-yl-methanone], the pKi was 8.91.

These data come from US8809331B2 (Genentech, Inc., priority 2011, dated 2014).
